Assay results: ChEMBL document CHEMBL1201862, “PubChem BioAssay data set” (2004)
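Growth conditions: 96-well plates. Treatment: test compound, 48 hours, 5 concentrations. Analysis: linear interpolation between bracketing concentrations; unreached endpoints set to highest concentration. GI50 marks 50% less growth.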 Calls of active or inactive are those of the source. No stated cut-off is given here; in the data, active = GI50 up to about 1.1 µM and inactive = higher.

What was measured:
Test in all cases: NCI anticancer screen, dose series, 48 h
[1] = tested on: DLD-1
[2] = tested on: HOP-18
[3] = tested on: KM-20L2
[4] = tested on: LXFL 529
[5] = tested on: M19-MEL
[6] = tested on: SNB-78
[7] = tested on: DMS-114
[8] = tested on: DMS-273
[9] = tested on: RXF 631

Compound	GI50 [1]	GI50 [2]	GI50 [3]	GI50 [4]	GI50 [5]	GI50 [6]	GI50 [7]	GI50 [8]	GI50 [9]
CC1=CC(N2C(=O)C(C)=CC2O)NC1=O (stereo unspecified)	> 100 µM (inactive)	< 0.01 µM (active)	> 100 µM (inactive)	> 100 µM (inactive)	> 100 µM (inactive)	> 100 µM (inactive)			
CC1=NC=C(O)c2ccccc2O1	> 100 µM (inactive)		> 100 µM (inactive)	> 100 µM (inactive)	> 100 µM (inactive)	> 100 µM (inactive)	> 100 µM (inactive)	> 100 µM (inactive)	
CCCCCCC(O)CC[C@H]1CCC[C@@H](C)N1 (stereo partly specified)	> 100 µM (inactive)	> 100 µM (inactive)	> 10 µM (inactive)	> 100 µM (inactive)	> 31.6 µM (inactive)	> 100 µM (inactive)	> 31.6 µM (inactive)	> 100 µM (inactive)	
O=c1nc(/C=C/c2ccccc2Cl)cc2n1CCN2CCO	> 100 µM (inactive)			55.1 µM (inactive)	> 100 µM (inactive)		24.8 µM (inactive)		
O=S(=O)(N/N=C/c1ccc(/C=N/NS(=O)(=O)c2ccccc2)cc1)c1ccccc1		84.3 µM (inactive)	> 100 µM (inactive)		50.6 µM (inactive)	61.8 µM (inactive)	54.8 µM (inactive)	46.8 µM (inactive)	36.4 µM (inactive)
Cn1cc(NC(=O)c2cc(NC(=O)CCCCCCCCCCC(=O)Nc3cc(C(=O)Nc4cc(C(=O)NCCC(=N)N)n(C)c4)n(C)c3)cn2C)cc1C(=O)NCCC(=N)N	27.9 µM (inactive)	15.2 µM (inactive)	27 µM (inactive)	16.9 µM (inactive)		46.7 µM (inactive)		28.2 µM (inactive)	
CN1CCCc2nc3ccccc3n2C1	> 100 µM (inactive)	> 100 µM (inactive)	> 100 µM (inactive)	> 100 µM (inactive)	> 100 µM (inactive)	> 100 µM (inactive)	> 100 µM (inactive)	> 100 µM (inactive)	
Cc1cccc(C)c1NC(=O)C(=O)C(C#N)c1ccccc1 (stereo unspecified)	> 100 µM (inactive)	> 100 µM (inactive)	> 100 µM (inactive)	> 100 µM (inactive)	> 100 µM (inactive)	> 100 µM (inactive)	> 100 µM (inactive)	> 100 µM (inactive)	
O=c1/c(=C/c2ccccc2O)sc2nc3ccccc3n12	29.9 µM (inactive)		84.1 µM (inactive)	31.3 µM (inactive)	41.2 µM (inactive)	43.2 µM (inactive)	19.7 µM (inactive)	82.4 µM (inactive)	43.7 µM (inactive)
COC(=O)CCSC(=O)Nc1ccc(/N=N/c2ccccc2)cc1	52.5 µM (inactive)	> 100 µM (inactive)	22.7 µM (inactive)	36.6 µM (inactive)	45.4 µM (inactive)	> 100 µM (inactive)	53.7 µM (inactive)	62.7 µM (inactive)	67.3 µM (inactive)
COC1C(OC(=O)/C=C/C=C/C=C/C=C/C(=O)O)CCC2(CO2)C1C1(C)OC1CC=C(C)C (stereo unspecified)	26.7 µM (inactive)	23.4 µM (inactive)	32.1 µM (inactive)		18.7 µM (inactive)	51.8 µM (inactive)	19.9 µM (inactive)	32.2 µM (inactive)	
CCCOc1ccc(/C(Cl)=C(\C=O)c2ccc(OC)c(OC)c2)cc1OCCC	5.71 µM (inactive)	> 100 µM (inactive)	89.7 µM (inactive)	5.74 µM (inactive)	10.5 µM (inactive)	6.07 µM (inactive)	3.07 µM (inactive)	3.72 µM (inactive)	
CCOc1ccc(C(CN2CCOCC2)C(C)=O)cc1OC (stereo unspecified)	10.6 µM (inactive)	16.2 µM (inactive)	18.8 µM (inactive)	4.46 µM (inactive)	18.9 µM (inactive)	20.7 µM (inactive)	15.7 µM (inactive)	11.3 µM (inactive)	
COc1nc2c(nc(N)n2C2OCC(O)C(O)C2O)c(=O)n1C (stereo unspecified)	> 100 µM (inactive)	> 100 µM (inactive)	> 100 µM (inactive)	> 100 µM (inactive)	> 100 µM (inactive)	> 100 µM (inactive)	> 100 µM (inactive)		
CC1=C(N2CC2)C(=O)C(C)=C(N2CC2)C1=O	0.21 µM (active)	0.451 µM (active)	0.178 µM (active)	0.2 µM (active)	0.229 µM (active)	0.836 µM (active)	0.129 µM (active)	0.0692 µM (active)	
Cc1cc(N(CCC#N)CCC#N)ccc1/C=C1/CN(N2C(=O)/C(=C/c3ccc(N(CCC#N)CCC#N)cc3C)N=C2c2ccccc2)C(c2ccccc2)=N1	> 100 µM (inactive)	> 100 µM (inactive)	> 100 µM (inactive)	63.5 µM (inactive)	> 100 µM (inactive)	32.1 µM (inactive)	> 100 µM (inactive)	> 100 µM (inactive)	
CN1c2ccccc2N(C(=O)c2ccc(Cl)cc2)C(CC(=O)O)c2cccn21 (stereo unspecified)	> 100 µM (inactive)		> 100 µM (inactive)	> 100 µM (inactive)	> 100 µM (inactive)	> 100 µM (inactive)	> 100 µM (inactive)	> 100 µM (inactive)	
N#C/C(=C\c1ccccc1Br)C(=O)c1ccccc1			> 87.3 µM (inactive)	12.3 µM (inactive)	33.4 µM (inactive)	6.67 µM (inactive)	97.1 µM (inactive)	26.8 µM (inactive)	> 100 µM (inactive)
Cc1cccc(NC(=O)c2cc3cc(/N=N/c4ccccc4Cl)ccc3oc2=O)c1	26.4 µM (inactive)	72.9 µM (inactive)	> 100 µM (inactive)	27.2 µM (inactive)	32.1 µM (inactive)	59.7 µM (inactive)	22.7 µM (inactive)	26.9 µM (inactive)	25.1 µM (inactive)
O=S1(=O)OCCOS(=O)(=O)C1Cc1ccccc1	43 µM (inactive)	23.5 µM (inactive)	43 µM (inactive)		39.5 µM (inactive)	> 100 µM (inactive)	38.2 µM (inactive)	45.4 µM (inactive)	
Cn1c(=O)nc2n(-c3ccc(F)c(F)c3)c3ccccc3nc-2c1=O	16 µM (inactive)	27.5 µM (inactive)	4.86 µM (inactive)	21.3 µM (inactive)	1.76 µM (inactive)	19.3 µM (inactive)	4.33 µM (inactive)	12.1 µM (inactive)	16.4 µM (inactive)
